Data reported in patent publication US20250206738A1, “WRN INHIBITORS” (Nimbus Wadjet, Inc., priority 2023, published 2025).

Legend:
[1] = target: T1, human Werner helicase (WRN, Uniprot Q14191, amino acids 517-1235 with L1074F point mutation; WRN-BV08) (Homo sapiens, UniProt Q14191, L1074F); experiment: WRN (BV08) ADP-Glo assay; assay type: biochemical; conditions: WRN-BV08 (aa 517-1235, L1074F); read-out: ADP-Glo_hWRN_IC50
T1 construct: Uniprot Q14191, amino acids 517-1235 with L1074F point mutation; 8xHis (C, cleaved yes); TEV cleavage site (ENLYFQG) (C, cleaved yes); made in house; host or cells: Sf9 insect cells (baculovirus, pFastBac)
In short: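 WRN 517-1235 (L1074F, untagged, Sf9-expressed), 0.15 nM, preincubated with compound 15 min at 25 °C, then 60 min with […] and 0.1 nM DNA duplex in Bicine pH 7.5, 1 mM MgCl2, 1% DMSO. ADP-Glo luminescence; % inhibition vs NSC-617145 control, four-parameter IC50 fit.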

[2] = tested on: p21 induction in HCT 116 cells; experiment: p21 induction in cells (In-Cell Western, p21/GAPDH ratio); assay type: cell-based; conditions: Homo sapiens, HCT-116, 24 h, 24 h compound incubation, read-out: P21_EC50
In short: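 HCT 116 cells treated 24 h at 37° C with 11-point, 2-fold dilutions starting typically at 10 μM, in duplicate. Fixed cells immunostained for p21 and GAPDH; 800/700 nm ratio normalised between DMSO and reference WRN inhibitor controls as percent activation. EC50 from non-linear regression.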

T1 sequence (Q14191 with tags, fused parts or gaps L1074F): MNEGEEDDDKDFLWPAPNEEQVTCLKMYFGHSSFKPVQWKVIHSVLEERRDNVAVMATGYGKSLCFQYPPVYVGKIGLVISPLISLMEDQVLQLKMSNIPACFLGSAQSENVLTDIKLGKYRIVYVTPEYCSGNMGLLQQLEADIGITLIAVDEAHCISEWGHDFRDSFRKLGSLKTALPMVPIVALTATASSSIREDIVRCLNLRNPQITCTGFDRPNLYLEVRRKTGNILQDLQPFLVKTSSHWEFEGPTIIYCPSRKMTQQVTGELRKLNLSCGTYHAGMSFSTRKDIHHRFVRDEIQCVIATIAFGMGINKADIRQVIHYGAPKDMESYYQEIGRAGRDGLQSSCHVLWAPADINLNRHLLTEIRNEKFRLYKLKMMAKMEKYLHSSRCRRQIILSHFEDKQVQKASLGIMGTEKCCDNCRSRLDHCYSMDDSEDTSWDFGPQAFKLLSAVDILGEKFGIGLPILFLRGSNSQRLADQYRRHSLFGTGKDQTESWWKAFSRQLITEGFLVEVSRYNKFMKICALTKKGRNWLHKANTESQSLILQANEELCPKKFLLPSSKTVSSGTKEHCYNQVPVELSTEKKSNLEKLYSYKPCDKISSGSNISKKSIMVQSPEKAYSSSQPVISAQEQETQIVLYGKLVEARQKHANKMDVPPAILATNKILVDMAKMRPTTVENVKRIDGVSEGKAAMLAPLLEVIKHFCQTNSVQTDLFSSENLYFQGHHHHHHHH

| IC50 [1] [nM] | EC50 [2] [nM] | Structure (SMILES) |
| --- | --- | --- |
| 5 to 50 | > 5000 | CCc1c(N2CCN(C(=O)c3ncnc(C)c3O)[C@H]3CC[C@@H]32)c(=O)c2nn(-c3ccnc(OC(F)F)c3)nc2n1CC(=O)NC12CC(C3CC3)(C1)C2 [I-223, N-(3-cyclopropylbicyclo[1.1.1]pentan-1-yl)-2-(2-(2-(difluoromethoxy)pyridin-4-yl)-5-ethyl-6-((1S,6S)-5-(5-hydroxy-6-methylpyrimidine-4-carbonyl)-2,5-diazabicyclo[4.2.0]octan-2-yl)-7-oxo-2,7-dihydro-4H-[1,2,3]triazolo[4,5-b]pyridin-4-yl)acetamide] |
| 5 to 50 | 500 to 2000 | CCc1c(N2CCN(C(=O)c3ncnc(C)c3O)[C@H]3CC[C@@H]32)c(=O)c2nc(N(C)C)cnc2n1CC(=O)NC12CC(C3CCCC3)(C1)C2 [I-224, N-(3-cyclopentylbicyclo[1.1.1]pentan-1-yl)-2-(2-(dimethylamino)-6-ethyl-7-((1S,6S)-5-(5-hydroxy-6-methylpyrimidine-4-carbonyl)-2,5-diazabicyclo[4.2.0]octan-2-yl)-8-oxopyrido[2,3-b]pyrazin-5(8H)-yl)acetamide] |
| 5 to 50 | 2000 to 5000 | CCc1c(N2CCN(C(=O)c3ncnc(C)c3O)[C@H]3CC[C@@H]32)c(=O)c2nc(N(C)C)cnc2n1CC(=O)NC1CC2(CCC2)C1 [I-229, 2-(2-(dimethylamino)-6-ethyl-7-((1S,6S)-5-(5-hydroxy-6-methylpyrimidine-4-carbonyl)-2,5-diazabicyclo[4.2.0]octan-2-yl)-8-oxopyrido[2,3-b]pyrazin-5(8H)-yl)-N-(spiro[3.3]heptan-2-yl)acetamide] |
| 5 to 50 | 2000 to 5000 | CCc1c(N2CCN(C(=O)c3cccc4ncoc34)CC2)c(=O)n2nc(-c3ccnc(OC)c3)nc2n1CC(=O)NC12CC(C(F)(F)F)(C1)C2 [I-231, 2-(6-(4-(benzo[d]oxazole-7-carbonyl)piperazin-1-yl)-5-ethyl-2-(2-methoxypyridin-4-yl)-7-oxo-[1,2,4]triazolo[1,5-a]pyrimidin-4(7H)-yl)-N-(3-(trifluoromethyl)bicyclo[1.1.1]pentan-1-yl)acetamide] |
| 5 to 50 | 500 to 2000 | CCc1c(N2CCN(C(=O)c3c(OC)ncc(C)c3O)[C@H]3CC[C@@H]32)c(=O)c2nc(N(C)C)cnc2n1CC(=O)NC12CC(C3CC3)(C1)C2 [I-233, N-(3-cyclopropylbicyclo[1.1.1]pentan-1-yl)-2-(2-(dimethylamino)-6-ethyl-7-((1S,6S)-5-(4-hydroxy-2-methoxy-5-methylnicotinoyl)-2,5-diazabicyclo[4.2.0]octan-2-yl)-8-oxopyrido[2,3-b]pyrazin-5(8H)-yl)acetamide] |
| 5 to 50 | 2000 to 5000 | CCc1c(N2CCN(C(=O)c3c(OC)ncc(C)c3O)CC2)c(=O)n2nc(C3=CCOCC3)nc2n1CC(=O)NC12CC(C(F)(F)F)(C1)C2 [I-236, 2-(2-(3,6-dihydro-2H-pyran-4-yl)-5-ethyl-6-(4-(4-hydroxy-2-methoxy-5-methylnicotinoyl)piperazin-1-yl)-7-oxo-[1,2,4]triazolo[1,5-a]pyrimidin-4(7H)-yl)-N-(3-(trifluoromethyl)bicyclo[1.1.1]pentan-1-yl)acetamide] |

Second part, the molecule before the results:

| Structure (SMILES) | IC50 [1] [nM] | EC50 [2] [nM] |
| --- | --- | --- |
| CCc1c(N2CCN(C(=O)c3ncnc(C)c3O)[C@H]3CC[C@@H]32)c(=O)n2nc(C3=CCOCC3)nc2n1CC(=O)NC12CC(C(C)C)(C1)C2 [I-222, 2-(2-(3,6-dihydro-2H-pyran-4-yl)-5-ethyl-6-((1S,6S)-5-(5-hydroxy-6-methylpyrimidine-4-carbonyl)-2,5-diazabicyclo[4.2.0]octan-2-yl)-7-oxo-[1,2,4]triazolo[1,5-a]pyrimidin-4(7H)-yl)-N-(3-isopropylbicyclo[1.1.1]pentan-1-yl)acetamide] | 5 to 50 | ≤ 500 |
| CCc1c(N2CCN(C(=O)c3ncnc(C)c3O)[C@H]3CC[C@@H]32)c(=O)n2nc(C3=CCOCC3)nc2n1CC(=O)NC12CC(C3CC3)(C1)C2 [I-225, N-(3-cyclopropylbicyclo[1.1.1]pentan-1-yl)-2-(2-(3,6-dihydro-2H-pyran-4-yl)-5-ethyl-6-((1S,6S)-5-(5-hydroxy-6-methylpyrimidine-4-carbonyl)-2,5-diazabicyclo[4.2.0]octan-2-yl)-7-oxo-[1,2,4]triazolo[1,5-a]pyrimidin-4(7H)-yl)acetamide] | 5 to 50 | ≤ 500 |
| CCc1c(N2CCN(C(=O)c3ncnc(C)c3O)[C@H]3CC[C@@H]32)c(=O)c2nc(N(C)C)cnc2n1CC(=O)NC12CC(C3CCC3)(C1)C2 [I-226, N-(3-cyclobutylbicyclo[1.1.1]pentan-1-yl)-2-(2-(dimethylamino)-6-ethyl-7-((1S,6S)-5-(5-hydroxy-6-methylpyrimidine-4-carbonyl)-2,5-diazabicyclo[4.2.0]octan-2-yl)-8-oxopyrido[2,3-b]pyrazin-5(8H)-yl)acetamide] | 5 to 50 | ≤ 500 |
| CCc1c(N2CCN(C(=O)c3ncnc(C)c3O)[C@H]3CC[C@@H]32)c(=O)c2nc(C)c(C)nc2n1CC(=O)NC12CC(C3CC3)(C1)C2 [I-227, N-(3-cyclopropylbicyclo[1.1.1]pentan-1-yl)-2-(6-ethyl-7-((1S,6S)-5-(5-hydroxy-6-methylpyrimidine-4-carbonyl)-2,5-diazabicyclo[4.2.0]octan-2-yl)-2,3-dimethyl-8-oxopyrido[2,3-b]pyrazin-5(8H)-yl)acetamide] | 5 to 50 | 500 to 2000 |
| CCc1c(N2CCN(C(=O)c3ncnc(C)c3O)C(C)(C)C2)c(=O)c2nn(-c3ccnc(OC)c3)nc2n1CC(=O)NC12CC(C3CC3)(C1)C2 [I-228, N-(3-cyclopropylbicyclo[1.1.1]pentan-1-yl)-2-(5-ethyl-6-(4-(5-hydroxy-6-methylpyrimidine-4-carbonyl)-3,3-dimethylpiperazin-1-yl)-2-(2-methoxypyridin-4-yl)-7-oxo-2,7-dihydro-4H-[1,2,3]triazolo[4,5-b]pyridin-4-yl)acetamide] | 5 to 50 | 500 to 2000 |
| CCc1c(N2CCN(C(=O)c3ncnc(C)c3O)[C@H]3CC[C@@H]32)c(=O)c2nc(N(C)C)cnc2n1CC(=O)NC1CC2(CCCC2)C1 [I-230, 2-(2-(dimethylamino)-6-ethyl-7-((1S,6S)-5-(5-hydroxy-6-methylpyrimidine-4-carbonyl)-2,5-diazabicyclo[4.2.0]octan-2-yl)-8-oxopyrido[2,3-b]pyrazin-5(8H)-yl)-N-(spiro[3.4]octan-2-yl)acetamide] | 5 to 50 | > 5000 |
| CCc1c(N2CCN(C(=O)c3ncnc(C)c3O)[C@H]3CC[C@@H]32)c(=O)c2nc(N(C)C)cnc2n1CC(=O)NC12CC(C3CC3)(C1)C2 [I-232, N-(3-cyclopropylbicyclo[1.1.1]pentan-1-yl)-2-(2-(dimethylamino)-6-ethyl-7-((1S,6S)-5-(5-hydroxy-6-methylpyrimidine-4-carbonyl)-2,5-diazabicyclo[4.2.0]octan-2-yl)-8-oxopyrido[2,3-b]pyrazin-5(8H)-yl)acetamide] | 5 to 50 | 500 to 2000 |
| CCc1c(N2CCN(C(=O)c3ncnc(C)c3O)CC2)c(=O)n2nc(C3=CCOCC3)nc2n1CC(=O)NC12CC(C(C)C)(C1)C2 [I-234, 2-(2-(3,6-dihydro-2H-pyran-4-yl)-5-ethyl-6-(4-(5-hydroxy-6-methylpyrimidine-4-carbonyl)piperazin-1-yl)-7-oxo-[1,2,4]triazolo[1,5-a]pyrimidin-4(7H)-yl)-N-(3-isopropylbicyclo[1.1.1]pentan-1-yl)acetamide] | 5 to 50 | 500 to 2000 |
| CCc1c(N2CCN(C(=O)CC3CCCC(=O)N3)[C@H]3CC[C@@H]32)c(=O)c2nn(C3=CCOCC3)nc2n1CC(=O)NC12CC(C(C)C)(C1)C2 (stereo partly drawn) [I-235, 2-(2-(3,6-dihydro-2H-pyran-4-yl)-5-ethyl-7-oxo-6-((1S,6S)-5-(2-(6-oxopiperidin-2-yl)acetyl)-2,5-diazabicyclo[4.2.0]octan-2-yl)-2,7-dihydro-4H-[1,2,3]triazolo[4,5-b]pyridin-4-yl)-N-(3-isopropylbicyclo[1.1.1]pentan-1-yl)acetamide] | 5 to 50 | > 5000 |
| CCc1c(N2CCN(C(=O)c3ncnc(C)c3O)[C@H]3CC[C@@H]32)c(=O)c2nc(N(C)C)cnc2n1CC(=O)NC12CC(OC(F)(F)F)(C1)C2 [I-237, 2-(2-(dimethylamino)-6-ethyl-7-((1S,6S)-5-(5-hydroxy-6-methylpyrimidine-4-carbonyl)-2,5-diazabicyclo[4.2.0]octan-2-yl)-8-oxopyrido[2,3-b]pyrazin-5(8H)-yl)-N-(3-(trifluoromethoxy)bicyclo[1.1.1]pentan-1-yl)acetamide] | 5 to 50 | 2000 to 5000 |
| CCc1c(N2CCN(C(=O)c3ncnc(C)c3O)[C@H]3CC[C@@H]32)c(=O)c2nc(N(C)C)cnc2n1CC(=O)NC1CC2(CC(C)C2)C1 (stereo partly drawn) [I-238, 2-(2-(dimethylamino)-6-ethyl-7-((1S,6S)-5-(5-hydroxy-6-methylpyrimidine-4-carbonyl)-2,5-diazabicyclo[4.2.0]octan-2-yl)-8-oxopyrido[2,3-b]pyrazin-5(8H)-yl)-N-(6-methylspiro[3.3]heptan-2-yl)acetamide] | 50 to 100 | > 5000 |
| CCc1c(N2CCN(C(=O)c3c(O)ccnc3OC)CC2)c(=O)n2nc(C3=CCOCC3)nc2n1CC(=O)NC12CC(C(F)(F)F)(C1)C2 [I-239, 2-(2-(3,6-dihydro-2H-pyran-4-yl)-5-ethyl-6-(4-(4-hydroxy-2-methoxynicotinoyl)piperazin-1-yl)-7-oxo-[1,2,4]triazolo[1,5-a]pyrimidin-4(7H)-yl)-N-(3-(trifluoromethyl)bicyclo[1.1.1]pentan-1-yl)acetamide] | 50 to 100 | > 5000 |
